Assay results taken from the supplement of paper PMC11061612.

Key:
[1] = tested on: TE-10 (Esophageal Squamous Cell Carcinoma); assay: Bliss excess, mean over the matrix (fraction); higher = more synergy
In short: (§1)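 Cell lines in DMEM/F12 or RPMI with 10% FBS were plated in 1536-well plates, held 24 hours at 37°C, 5% CO2, then given two-drug dose matrices for 72 hours (DMSO typically 0.2%). Viability was read by CellTiter-Glo 2.0 luminescence and scaled as inhibition from 0 (vehicle wells) to 1 (blank wells). Combination Emax is the second-highest inhibition in the matrix; Bliss excess is observed combination effect minus expected EA + EB − EA·EB, EA and EB being single-agent effects.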

[2] = tested on: 769-P (Kidney Carcinoma); assay: combination Emax (second highest fraction inhibited in the dose matrix, 72 h); higher = more inhibition; extreme values may be limits of the assay
In short: as §1

[3] = tested on: A101D (Melanoma); assay: as above
In short: as §1

[4] = tested on: A2780 (Ovarian Carcinoma); assay: as above
In short: as §1

[5] = tested on: CAL-27 (Oral Cavity Carcinoma); assay: as above
In short: as §1

[6] = tested on: CESS (Acute Myeloid Leukemia); assay: as above
In short: as §1

[7] = tested on: DMS-53 (Small Cell Lung Carcinoma); assay: as above
In short: as §1

[8] = tested on: JVM-2 (B-Cell Non-Hodgkin's Lymphoma); assay: as above
In short: as §1

[9] = tested on: KYSE-220 (Esophageal Squamous Cell Carcinoma); assay: as above
In short: as §1

[10] = tested on: MHH-ES-1 (Ewing's Sarcoma); assay: as above
In short: as §1

[11] = tested on: NCI-H2087 (Lung Adenocarcinoma); assay: as above
In short: as §1

[12] = tested on: TE-10 (Esophageal Squamous Cell Carcinoma); assay: as above
In short: as §1

[13] = tested on: MKN1 (Gastric Carcinoma); assay: Bliss excess, mean over the matrix (fraction); higher = more synergy
In short: as §1

[14] = tested on: NCI-H841 (Small Cell Lung Carcinoma); assay: as above
In short: as §1

[15] = tested on: MKN1 (Gastric Carcinoma); assay: combination Emax (second highest fraction inhibited in the dose matrix, 72 h); higher = more inhibition; extreme values may be limits of the assay
In short: as §1

[16] = tested on: NCI-H841 (Small Cell Lung Carcinoma); assay: as above
In short: as §1
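Throughout, for Bliss excess, mean over the matrix: after 72 h of two-drug dosing.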

Compound | Bliss excess [1] | combination Emax [2] | combination Emax [3] | combination Emax [4] | combination Emax [5] | combination Emax [6] | combination Emax [7] | combination Emax [8] | combination Emax [9] | combination Emax [10] | combination Emax [11] | combination Emax [12] | Bliss excess [13] | Bliss excess [14] | combination Emax [15] | combination Emax [16]
CN(C)CCCOc1ccc(-c2ccc3ncc4c(c3c2)n(C2CCOCC2)c(=O)n4C)cn1 [AZD0156] + C=CCn1c(=O)c2cnc(Nc3ccc(N4CCN(C)CC4)cc3)nc2n1-c1cccc(C(C)(C)O)n1 [AZD1775] (first compound max 1 µM, partner max 1 µM) | -0.033 | 0.766 | 0.495 | 0.79 | 0.376 | 0.929 | 0.148 | 0.888 | 0.812 | 0.671 | 0.332 | 0.808 |  |  |  | 
CN(C)CCCOc1ccc(-c2ccc3ncc4c(c3c2)n(C2CCOCC2)c(=O)n4C)cn1 [AZD0156] + CCN(CCO)CCCOc1ccc2c(Nc3cc(CC(=O)Nc4cccc(F)c4)[nH]n3)ncnc2c1 [AZD2811] (first compound max 1 µM, 7x7, partner max 1 µM) | 0.0126 | 0.0806 | 0.203 | 0.609 | 0.546 | 0.25 | 0.0911 | 0.719 | 0.142 | 0.55 | 0.0658 | 0.332 |  |  |  | 
CC(=O)c1c(C)c2cnc(Nc3ccc(N4CCNCC4)cn3)nc2n(C2CCCC2)c1=O [Palbociclib] + Cc1c2c(nn1C)CSCc1cc(n(C)n1)CSc1cc(c3ccccc3c1)OCCCc1c(C(=O)O)n(C)c3c-2c(Cl)ccc13 [AZD5991] (first compound max 10 µM, 7x7, partner max 1 µM) |  | 0.786 | 0.588 | 0.912 | 0.914 | 0.669 | 0.263 | 0.704 | 0.305 | 0.622 | 0.218 |  | -0.0238 | -0.0265 | 0.313 | 0.289
CC(=O)c1c(C)c2cnc(Nc3ccc(N4CCNCC4)cn3)nc2n(C2CCCC2)c1=O [Palbociclib] + Cn1cnc2c(F)c(Nc3ccc(Br)cc3Cl)c(C(=O)NOCCO)cc21 [Selumetinib] (first compound max 10 µM, 7x7, partner max 10 µM) |  | 0.809 | 0.588 | 0.825 | 0.627 | 0.658 | 0.212 | 0.774 | 0.66 | 0.352 | 0.501 |  | -0.0001 | -0.0352 | 0.332 | 0.16
CCc1c2c(nc3ccc(O)cc13)-c1cc3c(c(=O)n1C2)COC(=O)[C@]3(O)CC [SN-38] + O=C(c1cc(Cc2n[nH]c(=O)c3ccccc23)ccc1F)N1CCN(C(=O)C2CC2)CC1 [Olaparib] (first compound max 0.3 µM, 7x7, partner max 10 µM) | 0.0939 | 0.734 | 0.757 | 0.777 |  | 0.989 | 0.735 | 0.934 | 0.99 | 0.978 | 0.909 | 0.752 |  |  |  | 
Cn1cnc2c(F)c(Nc3ccc(Br)cc3Cl)c(C(=O)NOCCO)cc21 [Selumetinib] + C=CCn1c(=O)c2cnc(Nc3ccc(N4CCN(C)CC4)cc3)nc2n1-c1cccc(C(C)(C)O)n1 [AZD1775] (first compound max 10 µM, partner max 1 µM) |  | 0.904 | 0.64 | 0.799 | 0.578 | 0.944 | 0.247 | 0.906 | 0.664 | 0.726 | 0.559 |  | -0.0326 | -0.0536 | 0.782 | 0.217
Cn1cnc2c(F)c(Nc3ccc(Br)cc3Cl)c(C(=O)NOCCO)cc21 [Selumetinib] + CC(C)n1c(=O)n(C)c2cnc3cc(F)c(-c4ccc(OCCCN5CCCCC5)nc4)cc3c21 [AZD1390] (first compound max 10 µM, 7x7, partner max 0.3 µM) |  | 0.294 | 0.528 | 0.574 | 0.611 | 0.243 | 0.132 | 0.352 | 0.405 | 0.126 | 0.449 |  | -0.0173 | -0.0529 | 0.182 | 0.0728
Cn1cnc2c(F)c(Nc3ccc(Br)cc3Cl)c(C(=O)NOCCO)cc21 [Selumetinib] + CCN(CCO)CCCOc1ccc2c(Nc3cc(CC(=O)Nc4cccc(F)c4)[nH]n3)ncnc2c1 [AZD2811] (first compound max 10 µM, 7x7, partner max 1 µM) |  | 0.356 | 0.596 | 0.702 | 0.611 | 0.423 | 0.158 | 0.633 | 0.52 | 0.609 | 0.445 |  | 0.002 | -0.0341 | 0.538 | 0.332
Cn1cnc2c(F)c(Nc3ccc(Br)cc3Cl)c(C(=O)NOCCO)cc21 [Selumetinib] + C[C@@H]1COCCN1C2=NC(=NC(=C2)C3(CC3)[S@](=N)(=O)C)C4=C5C=CNC5=NC=C4 [AZD6738] (first compound max 10 µM, 7x7, partner max 10 µM) |  | 0.888 | 0.76 | 0.829 | 0.63 | 0.815 | 0.151 | 0.825 | 0.753 | 0.525 | 0.661 |  | 0.0183 | -0.0212 | 0.782 | 0.389
